Patent US6979747B2, “Antioxidants, preparation processes and their uses” (Centre National de la Recherche Scientifique (CNRS), priority 1999, dated 2005)

Legend:
[1] = target: T1, RT of the HIV-1 LAI isolate (Human immunodeficiency virus type 1 group M subtype B, UniProt P03367); experiment: Acellular test of the enzymatic activity of RT; assay type: biochemical; conditions: acellular system
T1 construct: The RT is released by lysis of the viral pellet in 20 μl of NTE-Triton; endogenous in cells; host or cells: Virions pelleted by ultracentrifugation from supernatants of infected cell cultures
Experimental: (§1) The viral replication is measured by assaying the RT activity in the culture supernatants according to the technique described by F. Rey et al. (Biochem. Biophys. Res. Comm., 1984, 121, 126-133). The radioactivity incorporated during the extension of the complementary strand of a poly-rA synthetic matrix in the presence of an oligo-dT12-18 primer and of a radiolabeled substrate, [^3H-methyl]thymidine-5′-triphosphate ([^3H]TPP), makes it possible to assay the enzymatic activity of RT. 400 μl of supernatant are ultracentrifuged at 360 000 g for 5 min. The RT is released by lysis of the viral pellet in 20 μl of NTE-Triton (100 mM NaCl, 10 mM Tris, 1 mM EDTA, 0.1% Triton X-100). These 20 μl are subsequently incubated with 40 μl of the following reaction mixture: 62.5 mM Tris, pH 7.8; 25 mM KCl; 6.25 mM MgCl2; 1.25 mM dithiothreitol (DTT); 2.5×10^−3 ODU oligo-dT12-18 and poly-rA, 5.55×10^−3 TBq {^3H]TTP. After one hour at 37° C., the enzymatic reaction is halted and the newly synthesized strands are precipitated for 20 min at 4° C. by the addition of 1 ml of sodium pyrophosphate (NaPP), of 50 μl of yeast DNA (0.1 mg/ml in 5% trichluoroacetic acid (TCA)), and of 4 ml of 20% TCA. The mixture is filtered using a cellulose acetate membrane (Millipore) which retains the radiolabeled poly-dT chains. The filter is washed using 20 ml of 5% TCA and the residual water is removed by addition of 25 μl of 70% ethanol. The filter is dried in an oven for 10 minutes at 80° C. and is then introduced into vials containing 8 ml of liquid scintillant. The β radioactivity is quantified by means of a scintillation counter (Packard Bell). The results are expressed in pM of [^3H]-TMP incorporated/h/ml of supernatant or, more simply, in cpm/h/ml.
The I-152 molecule is composed of NAC and MEA, which are capable of inhibiting the activity of RT (A. Bergamini et al., J. Clin. Invest., 1994, 93, 2251-2257). For this reason, the inhibiting capacity of I-152 with respect to the RT activity was measured using an acellular test. This test was carried out according to the protocol described above (§ 3.3.3.1.). In the reaction mixture, only the 20 μl of water are replaced by 20 μl of a concentration of I-152 or of the reference compounds. Heparin, known for inhibiting the activity of RT and of the other DNA polymerases, is used as positive control for inhibition.

MDMs = experiment: Cytotoxicity with respect to MDMs (neutral red); assay type: cell-based, human; conditions: MDMs
Experimental: These tests are carried out systematically in parallel with the evaluation of the antiviral activity. In view of the oxidation/reduction capacity of the molecules tested, the test with the tetrazolium salt, which measures the activity of mitochondrial dehydrogenases, cannot be used.
Neutral red (NR) is a vital dye which makes it possible to measure the viability of adherent cells, such as MDMs. 600 μl of culture supernatant are removed and replaced with 400 μl of an NR solution (0.001% m/v in phosphate buffer, PBS, Boehringer Mannheim), filtered at 0.45 μm. The cells were incubated for 1 h at 37° C. and are subsequently washed (2×1 ml of PBS). The cells are then lysed at −20° C. with 200 μl of a 50% ethanol mixture comprising 1% of glacial acetic acid. The OD is measured twice with 100 μl of solution using a spectrophotometer.

HIV-1 LAI = experiment: Antiviral activity in quiescent or PHA-P activated PBMCs infected with HIV-1 LAI; assay type: cell-based; conditions: for decrease of viral replication: PBMCs activated by PHA-P
Experimental: For some experiments, the PBMCs and the PBLs are activated for 48 h with 1 μg/ml of a mitogen, PHA-P (Difco Laboratories). The PBMCs and the PBLs are cultured in medium A (quiescent) or B (activated). The cells are cultured at 37° C. in an atmosphere saturated with moisture under 5% of CO2. The culture supernatants are removed and the culture media are replaced every three or four days. At each renewal of the culture media, the cell viability is evaluated by coloring with trypan blue or by microscopic observation.
The MDMs were infected with the reference isolate with macrophage tropism, HIV-1/Ba-L. The PBMCs and the PBLs were infected with the reference isolate with lymphocyte tropism HIV-1 LAI. The viral stock were formed by amplifying these strains in vitro using umbilical blood mononucleated cells (UBM(s) preactivated with 1 μg/ml of PHA-P and cultured in medium A supplemented by 20 IU/ml of IL-2. In order to remove the soluble factors, such as cytokines, the culture supernatants were ultracentrifuged at 360 000 g for 5 min, and the pellets were resuspended in RPMI 1640. The viral stocks thus formed were subsequently titred using PBMCs activated with PHA-P. The TCID50s (50% Tissue Culture Infectious Dose) were calculated using the Kärber formula.
A million MDMs were infected with 10 000 TCID50s of the HIV-1/Ba-L strain. This amount of virus corresponds to a multiplicity of infection (m.o.i.) equal to 0.01. The excess of virus is removed 24 h after by washing with cells using RPMI 1640. The PBLs and the PBMCs were infected with 10 000 TCID50s of the HIV-1 LAI strain (moi=0.01). The cells were washed at the end of the second day of infection.
as §1
The PBMCs, quiescent or activated by PHA-P, were infected by the reference strain with lymphocyte tropism HIV-1 LAI. All the culturings were carried out in parallel and the drugs were maintained throughout the culturing.

Structure (SMILES): CC(=O)N[C@@H](CS)C(=O)NCCSC(C)=O [I-152, N-(N-acetyl-L-cysteinyl)-S-acetylcysteamine]
- inhibiting activity with respect to RT (in words) [1]: do not exhibit an inhibiting activity
- cytotoxicity (in words) (MDMs; 500 μM (10 times the 50% effective dose)): not cytotoxic
- cytotoxicity at antiviral doses (in words) (MDMs; antiviral doses): not cytotoxic
- inhibition at 125 µM (HIV-1 LAI; Human immunodeficiency virus 1, PBMC, quiescent PBMCs, 125 μM, read-out: inhibition of viral replication): 88%
- inhibition at 250 µM (HIV-1 LAI; Human immunodeficiency virus 1, PBMC, quiescent PBMCs, 250 μM, read-out: inhibition of viral replication): 97%
- decrease of viral replication (HIV-1 LAI; 125 μM): 25%
- decrease of viral replication (HIV-1 LAI; 250 μM): 42%
